Key:
[1] = molecular target: T1, βarr1 (Homo sapiens, UniProt P49407, C125S/C140L/C150V/C242V/C251V/C269S/C59V/D390C); experiment: 1D 19F NMR of site-specifically 19F (wPSP-6F)-labeled βarr1; format: biochemical; conditions: for Linewidth: 298 K, pH 8.0
T1 construct: we started from a full-length functional cysteine-less βarr1 construct[20]; 6xHis-tag with SSG linker and thrombin cleavage site (N, cleaved yes); made in house; host or cells: E. coli BL21(DE3)
Description: (§1) The cysteine-less mutant (C59V/C125S/C140L/C150V/C242V/C251V/C269S) of the long splice variant of human βarr1 was used for introduction of single site cysteine mutation for ^19F labeling. The sequence was codon-optimized for expression in Escherichia coli and cloned into a pET-28a(+) vector (Novagen), with an N-terminal 6xHis-tag, followed by an SSG linker and a thrombin cleavage site. All mutants, including the 1–382 (βarr1-ΔCT) and 1–395 truncation constructs, were generated using site-directed mutagenesis kits (Thermo Fisher). Primer sequences for generating the mutants are listed in Supplementary Table 4.
Each single-cysteine mutant of βarr1 was diluted to a concentration of 50 μM to be labeled using the sulfoxide-based ^19F probe wPSP-6F[21],[44]. The wPSP-6F stock dissolved in buffer E was added into the protein sample at 1.5-fold molar ratio excess and incubated at 4 °C for 1 h, followed by quenching with twofold molar ratio of dithiothreitol. The sample was then fully exchanged using buffer E to remove excess of small molecules, and subjected to a second round of SEC purification. The purified proteins were concentrated to 100 μM, flash-frozen in liquid nitrogen and stored at −80 °C until use. The purities of all samples were verified by SDS-PAGE.
The ^19F-labeled βarr1 was diluted to 50 μM using buffer E before incubation with peptides or PIP2. The V2Rpp, β2AR-GRK2pp/GRK6pp or PIP2 were added at 1.2-fold, 3-fold, and 1.5-fold molar ratio excess to the protein, respectively. For the membrane-bound sample, the reconstituted nanodiscs were added at twofold molar ratio of βarr1. All complexes were incubated at 25 °C for 1 h, and the freshly prepared samples were immediately subjected to ^19F NMR experiments.
NMR samples were prepared in buffer E to a final volume of 140 μL, supplemented with 1 mM DTT, 10% D2O for field lock, and 1 μM sodium trifluoroacetate (STFA) as the internal chemical shift reference. All samples were sterile-filtered and loaded into sterile 3 mm NMR microtubes to prevent microbial contamination. Final protein concentrations vary for different constructs, depending on their expression levels and stabilities, but all in the range of 20–50 μM.
All ^19F NMR spectra were recorded at 298 K using a Bruker AVANCE III HD 800 MHz spectrometer equipped with a ^1H-^19F/^13C/^15N TCI triple resonance cryogenic probe. All data were acquired and processed using the Bruker Topspin 4.2.0 software. For all 1D ^19F NMR experiments, the traditional one-pulse sequence was used. The carrier frequency was set to −68.0 ppm and the spectra were recorded with 4k points and a spectral width of 15,000 Hz. Because accurate calibration of the 90° excitation pulse length for individual samples is not practical due to the low protein concentrations, we used the 90° pulse length calibrated from a standard sample (0.05% Trifluoro-toluene in CDCl3) for all βarr1 samples. […] Therefore, all the ^19F experiments were conducted with a 100 ms relaxation delay, and acquired using 100,000–200,000 scans depending on the sample condition, yielding a signal-to-noise (S/N) ratio of approximately 50. SDS-PAGE were run for all samples before and after NMR experiments to ensure that no protein degradation occurs during the experiments.
All NMR data were analyzed using the MestraNova 12.0.0 software (https://mnova.pl). The spectra were baseline-corrected by the Whittaker Smoother method and applied with a 30 Hz exponential windows function. The ^19F chemical shifts were referenced to STFA at −75.450 ppm. All datasets were processed using the same variables to facilitate comparison. Spectral deconvolutions were performed assuming generalized Lorentzian line shapes. To distinguish overlapping resonances, a LB value of 3 Hz was initially applied to ensure the highest resolution and determine the exact chemical shift values. The spectra were subsequently fitted iteratively using an LB value of 30 Hz. […]

[2] = test system: βarr1-1-395; experiment: 1D 19F NMR of distal CT-deleted construct; format: biochemical, human; conditions: H295C site; PIP2
Description: as §1
(§2) The ^19F-labeled βarr1 was diluted to 50 μM using buffer E before incubation with peptides or PIP2. The V2Rpp, β2AR-GRK2pp/GRK6pp or PIP2 were added at 1.2-fold, 3-fold, and 1.5-fold molar ratio excess to the protein, respectively. […]
(§3) All ^19F NMR spectra were recorded at 298 K using a Bruker AVANCE III HD 800 MHz spectrometer equipped with a ^1H-^19F/^13C/^15N TCI triple resonance cryogenic probe. […] The carrier frequency was set to −68.0 ppm and the spectra were recorded with 4k points and a spectral width of 15,000 Hz. […]
All NMR data were analyzed using the MestraNova 12.0.0 software (https://mnova.pl). […] Peak intensities, integrated peak area and linewidths were determined based on the fitted results.

[3] = test system: βarr1-ΔCT (residues 1–382); experiment: 19F NMR (1D and CEST) of CT-truncated construct; format: biochemical, human; conditions: E206C site; PIP2 added to pre-activated ΔCT state
Description: as §1, §2, §3
All NMR data were analyzed using the MestraNova 12.0.0 software (https://mnova.pl). […] Peak intensities, integrated peak area and linewidths were determined based on the fitted results. […]

T1 sequence (P49407 whole entry C59V/C125S/C140L/C150V/C242V/C251V/C269S/D390C): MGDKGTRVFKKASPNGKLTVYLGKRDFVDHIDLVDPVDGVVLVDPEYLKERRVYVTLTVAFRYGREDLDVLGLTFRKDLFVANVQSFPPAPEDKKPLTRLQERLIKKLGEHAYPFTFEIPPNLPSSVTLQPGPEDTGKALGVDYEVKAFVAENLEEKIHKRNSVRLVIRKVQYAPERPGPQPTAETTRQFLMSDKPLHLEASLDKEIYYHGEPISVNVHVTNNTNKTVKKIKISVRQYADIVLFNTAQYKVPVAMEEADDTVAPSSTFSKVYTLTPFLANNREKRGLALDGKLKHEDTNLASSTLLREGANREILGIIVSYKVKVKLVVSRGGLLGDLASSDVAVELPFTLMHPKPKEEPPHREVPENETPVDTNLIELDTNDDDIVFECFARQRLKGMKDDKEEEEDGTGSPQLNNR

`CCCCCCCC(=O)OC[C@H](COP(=O)(O)O[C@@H]1[C@H](O)[C@H](O)[C@@H](OP(=O)(O)O)[C@H](OP(=O)(O)O)[C@H]1O)OC(=O)CCCCCCC` [PIP2, diC8-PI(4,5)P2] was tested, and the Linewidth ([1]; 1T36 site, ligand-bound state (V2Rpp 1.2-fold, PIP2 1.5-fold), basal 107) was 102 Hz, the “Linewidth increase upon PIP2 binding” value ([1]; C242 site) was ~ 50% and the Linewidth ([1]; C242 site, PIP2 1.5-fold, basal 80) was 120 Hz. For the same compound, the Linewidth ([1]; C269 site, PIP2 1.5-fold, basal 58) was 56 Hz, the “Linewidth increase upon PIP2 binding” value ([1]; D240C site) was roughly 75% and the Linewidth ([1]; D240 site, PIP2 1.5-fold, basal 75) was 133 Hz. The “Linewidth of the S2 resonance” value ([1]; D390C site, released conformation, V2Rpp 1.2-fold or PIP2 1.5-fold) was greater than 200 Hz, the CT displacement/release ([1]; D390C site, V2Rpp 1.2-fold, PIP2 1.5-fold) was “very slight increase of the active S2 peak at the D390C site” and the Linewidth ([1]; D390 site, ligand-bound state (V2Rpp 1.2-fold, PIP2 1.5-fold), basal 87) was 92 Hz. For the same compound, the “Linewidth increase upon PIP2 binding” value ([1]; E206C site) was less than 10%, the “Spectral change at E206C” value ([1]; E206C site, PIP2 alone) was “no obvious changes at this site” and the Linewidth ([1]; E206 site, ligand-bound state (V2Rpp 1.2-fold, PIP2 1.5-fold), basal 120) was 129 Hz. The “Linewidth increase upon PIP2 binding” value ([1]; E283C site) was less than 10%, the Linewidth ([1]; E283 site, PIP2 1.5-fold, basal 99) was 106 Hz and the “Linewidth increase upon PIP2 binding” value ([1]; E313C site) was ~ 50%. It also gave a Linewidth ([1]; E313 site, ligand-bound state (V2Rpp 1.2-fold, PIP2 1.5-fold), basal 88) of 136 Hz, a Linewidth ([1]; E404 site, ligand-bound state (V2Rpp 1.2-fold, PIP2 1.5-fold), basal 51) of 57 Hz and a Linewidth ([1]; F244 site, ligand-bound state (V2Rpp 1.2-fold, PIP2 1.5-fold), basal 123) of 200 Hz. The “Linewidth increase upon PIP2 binding” value ([1]; F277C site) was less than 10%, the Linewidth ([1]; F277 site, PIP2 1.5-fold, basal 68) was 68 Hz and the Linewidth ([1]; H198 site, PIP2 1.5-fold, basal 107) was 115 Hz. The S2 population ([1]; H295C site, PIP2 alone, 1.5-fold) was ~ 68%, the S2 population ([1]; H295C site, PIP2 co-added with GRK2/6-phosphorylated β2AR peptides) was ~ 55% and the “Gate loop conformational change (S2 state)” value ([1]; H295C site, V2Rpp 1.2-fold, β2AR peptides 3-fold, PIP2 1.5-fold, nanodiscs twofold) was “dramatic, albeit incomplete transition to the S2 state”. For the same compound, the Linewidth ([1]; H295 site, ligand-bound state (V2Rpp 1.2-fold, PIP2 1.5-fold), basal 230) was 362 Hz, the Linewidth ([1]; L68 site, ligand-bound state (V2Rpp 1.2-fold, PIP2 1.5-fold), basal 89) was 101 Hz and the Linewidth ([1]; L71 site, ligand-bound state (V2Rpp 1.2-fold, PIP2 1.5-fold), basal 62) was 73 Hz. It also gave a Linewidth ([1]; L100 site, ligand-bound state (V2Rpp 1.2-fold, PIP2 1.5-fold), basal 247) of 242 Hz, a Linewidth ([1]; L191 site, PIP2 1.5-fold, basal 58) of 75 Hz and a Linewidth ([1]; L293 site, ligand-bound state (V2Rpp 1.2-fold, PIP2 1.5-fold), basal 113) of 141 Hz. The Linewidth ([1]; L334 site, ligand-bound state (V2Rpp 1.2-fold, PIP2 1.5-fold), basal 50) was 87 Hz, the Linewidth ([1]; N375 site, ligand-bound state (V2Rpp 1.2-fold, PIP2 1.5-fold), basal 46) was 48 Hz and the Linewidth ([1]; T6 site, ligand-bound state (V2Rpp 1.2-fold, PIP2 1.5-fold), basal 71) was 70 Hz. For the same compound, the Linewidth ([1]; T183 site, ligand-bound state (V2Rpp 1.2-fold, PIP2 1.5-fold), basal 67) was 89 Hz, the New peak ([1]; Y63C site, PIP2 1.5-fold) was “appearance of a new peak S3” and the “Spectral changes in the central crest” value ([1]; Y63C, L68C, L71C, T136C, F244C, V2Rpp 1.2-fold, β2AR peptides 3-fold, PIP2 1.5-fold) was “apparently perturbs Y63C and F244C while having little effect on the other sites”. The Linewidth ([1]; Y63 site, ligand-bound state (V2Rpp 1.2-fold, PIP2 1.5-fold), basal 118) was 206 Hz, the “Transition to S2 state” value [2] was “promotes the S2 conformation to an extent comparable with full-length βarr1” and the “Active S2 conformation” value [3] was “increases the active S2 conformation”.
